# Test results: patent publication US8663639B2, “Formulations for treating ocular diseases and conditions” (Santen Pharmaceutical Co., Ltd., priority 2005, dated 2014)
# Read-outs that look alike come from different tables or passages of the source.
# Experiment: Topical administration (eye drops) of formulation #340, rapamycin levels in blood, cornea, retina choroid, sclera and vitreous (Tables 3-6)
# Type: in vivo
# Details: rabbit, formulation #340 topical; for concentration at 8 day / concentration at 10 day / concentration at 12 day / concentration at 14 day: Group III (two drops once a day on both eyes for 6 days)
# Description: Both eyes (or one eye depending on the study) of each animal received one or two drops (40 μl per drop) of the studied formulations using a calibrated pipette on day 0 (day of dosing).
# For Tables 3-6, the solution of Example 46 (formulation #340) was administered two drops twice a day on both eyes, one time for Group I, two drops once a day on one eye, one time for Group II, and two drops once a day on both eyes for 6 days in Group III. In Group II, the right eye (OD) but not the left eye (OS) received eye drops. In a further study, one drop of the formulation #340 (40 μL containing 880 μg rapamycin) was administered on day zero.
structure (smiles),measurement,setting,value
"CO[C@H]1C[C@@H]2CC[C@@H](C)[C@@](O)(O2)C(=O)C(=O)N2CCCC[C@H]2C(=O)O[C@H]([C@H](C)C[C@@H]2CC[C@@H](O)[C@H](OC)C2)CC(=O)[C@H](C)/C=C(\C)[C@@H](O)[C@@H](OC)C(=O)[C@H](C)C[C@H](C)/C=C/C=C/C=C/1C [Rapamycin, rapamycin]",concentration at 1 day,"sclera, 2 drops (40 μl per drop) on one eye (right eye, OD), Group II (two drops once a day on one eye, one time), OD, day 1, n = 1, read-out: Rapamycin level, sclera",421 ng/g
same,concentration at 2 day,"sclera, 2 drops (40 μl per drop) on one eye (right eye, OD), Group II (two drops once a day on one eye, one time), OD, day 2, n = 1, read-out: Rapamycin level, sclera",1350 ng/g
same,concentration at 3 day,"sclera, 2 drops (40 μl per drop) on one eye (right eye, OD), Group II (two drops once a day on one eye, one time), OD, day 3, n = 1, read-out: Rapamycin level, sclera",541 ng/g
same,concentration at 1 day,"sclera, 2 drops (40 μl per drop) on one eye (right eye, OD), Group II (two drops once a day on one eye, one time), OS, day 1, n = 1, read-out: Rapamycin level, sclera",34.2 ng/g
same,concentration at 2 day,"sclera, 2 drops (40 μl per drop) on one eye (right eye, OD), Group II (two drops once a day on one eye, one time), OS, day 2, n = 1, read-out: Rapamycin level, sclera",144 ng/g
same,concentration at 3 day,"sclera, 2 drops (40 μl per drop) on one eye (right eye, OD), Group II (two drops once a day on one eye, one time), OS, day 3, n = 1, read-out: Rapamycin level, sclera",104 ng/g
same,concentration at 8 day,"sclera, 2 drops (40 μl per drop) per eye, both eyes, day 8, n = 2, read-out: Rapamycin level, sclera",895 ng/g
same,concentration at 10 day,"sclera, 2 drops (40 μl per drop) per eye, both eyes, day 10, n = 2, read-out: Rapamycin level, sclera",613 ng/g
same,concentration at 12 day,"sclera, 2 drops (40 μl per drop) per eye, both eyes, day 12, n = 2, read-out: Rapamycin level, sclera",131 ng/g
same,concentration at 14 day,"sclera, 2 drops (40 μl per drop) per eye, both eyes, day 14, n = 2, read-out: Rapamycin level, sclera",420 ng/g
same,concentration at 1 day,"sclera, 2 drops (40 μl per drop) per eye, both eyes, twice a day, Group I (two drops twice a day on both eyes, one time), day 1, n = 2, read-out: Rapamycin level, sclera",90.8 ng/g
same,concentration at 2 day,"sclera, 2 drops (40 μl per drop) per eye, both eyes, twice a day, Group I (two drops twice a day on both eyes, one time), day 2, n = 2, read-out: Rapamycin level, sclera",751 ng/g
same,concentration at 3 day,"sclera, 2 drops (40 μl per drop) per eye, both eyes, twice a day, Group I (two drops twice a day on both eyes, one time), day 3, n = 2, read-out: Rapamycin level, sclera",351 ng/g
same,concentration at 1 day,"vitreous, 2 drops (40 μl per drop) on one eye (right eye, OD), Group II (two drops once a day on one eye, one time), OD, day 1, n = 1, read-out: Rapamycin level, vitreous",2.06 ng/mL
same,concentration at 2 day,"vitreous, 2 drops (40 μl per drop) on one eye (right eye, OD), Group II (two drops once a day on one eye, one time), OD, day 2, n = 1, read-out: Rapamycin level, vitreous",5.01 ng/mL
same,concentration at 3 day,"vitreous, 2 drops (40 μl per drop) on one eye (right eye, OD), Group II (two drops once a day on one eye, one time), OD, day 3, n = 1, read-out: Rapamycin level, vitreous",3.96 ng/mL
same,concentration at 1 day,"vitreous, 2 drops (40 μl per drop) on one eye (right eye, OD), Group II (two drops once a day on one eye, one time), OS, day 1, n = 1, read-out: Rapamycin level, vitreous",1 ng/mL
same,concentration at 2 day,"vitreous, 2 drops (40 μl per drop) on one eye (right eye, OD), Group II (two drops once a day on one eye, one time), OS, day 2, n = 1, read-out: Rapamycin level, vitreous",2.95 ng/mL
same,concentration at 3 day,"vitreous, 2 drops (40 μl per drop) on one eye (right eye, OD), Group II (two drops once a day on one eye, one time), OS, day 3, n = 1, read-out: Rapamycin level, vitreous",4 ng/mL
same,concentration at 8 day,"vitreous, 2 drops (40 μl per drop) per eye, both eyes, day 8, n = 2, read-out: Rapamycin level, vitreous",19.7 ng/mL
same,concentration at 10 day,"vitreous, 2 drops (40 μl per drop) per eye, both eyes, day 10, n = 2, read-out: Rapamycin level, vitreous",7.9 ng/mL
same,concentration at 12 day,"vitreous, 2 drops (40 μl per drop) per eye, both eyes, day 12, n = 2, read-out: Rapamycin level, vitreous",1.46 ng/mL
same,concentration at 14 day,"vitreous, 2 drops (40 μl per drop) per eye, both eyes, day 14, n = 2, read-out: Rapamycin level, vitreous",5.66 ng/mL
same,concentration at 1 day,"vitreous, 2 drops (40 μl per drop) per eye, both eyes, twice a day, Group I (two drops twice a day on both eyes, one time), day 1, n = 2, read-out: Rapamycin level, vitreous",1.24 ng/mL
same,concentration at 2 day,"vitreous, 2 drops (40 μl per drop) per eye, both eyes, twice a day, Group I (two drops twice a day on both eyes, one time), day 2, n = 2, read-out: Rapamycin level, vitreous",5.41 ng/mL
same,concentration at 3 day,"vitreous, 2 drops (40 μl per drop) per eye, both eyes, twice a day, Group I (two drops twice a day on both eyes, one time), day 3, n = 2, read-out: Rapamycin level, vitreous",3.03 ng/mL
